The results in this text go back to patent US20120157472A1, “METHOD FOR TREATING COLORECTAL CANCER” (BOEHRINGER INGELHEIM INTERNATIONAL GMBH, priority 2009, published 2012).

SMILES strings stand for the structures. Entries after “also recorded” stand apart in the source; their conditions may differ.

The subject of series [1] is HT-29 colorectal xenografts. The experiment in a line: Tumor growth inhibition in mice with HT-29 colorectal xenografts. Format: in vivo. As to conditions: single agent, daily 10 mg/kg p.o., HT-29 xenografts, sub-optimal dose. How it is done: (§1) A panel of 14 well-characterized human colorectal cancer cell lines were used to characterize the in vitro effects of BIBF 1120 (B1), BIBW 2992 (B2) and their combinations. The antitumor effects of the 2 drugs were evaluated in mice with HT-29 colorectal xenografts.
The tumor growth inhibitory activities of B1 and B2 were determined for HT-29 xenografts after daily drug administration (10 mg/kg p.o.) or, for control animals, by oral administration of the solvent. […] Since the studies were designed to detect additive or synergistic interactions between the two drugs in subsequent experiments, only sub-optimal doses were used in these studies. Each group represents at least seven mice.
The tumor growth inhibitory activities of B1 and B2 were determined for HT-29 xenografts after daily drug administration (10 mg/kg p.o.) or, for control animals, by oral administration of the solvent.

Series [2] deals with angiogenesis. The experiment in a line: Angiogenesis inhibition by CD31 staining. The class given is in vivo.
In series [3] the test system is human colorectal cancer cell lines. The experiment in a line: In vitro effects on human colorectal cancer cell lines. As to conditions: for cytotoxic activity: conclusion, single agent; for growth inhibition / cell cycle effect: exposure of colorectal cancer cells to single agent. Format: cell-based. As to the method: as §1

Turning to `COC(=O)c1ccc2c(c1)NC(=O)/C2=C(\Nc1ccc(N(C)C(=O)CN2CCN(C)CC2)cc1)c1ccccc1` [B1, 3-Z-[1-(4-(N-((4-methyl-piperazin-1-yl)-methylcarbonyl)-N-methyl-amino)-anilino)-1-phenyl-methylene]-6-methoxycarbonyl-2-indolinone], the “tumor growth inhibitory activity (tumor volume over treatment time)” value in series [1] is “exhibit growth inhibitor activity”. Further, the inhibition of angiogenesis entry in series [2] is given as “inhibited angiogenesis; also recorded: antiangiogenic activity”. In series [3], the cytotoxic activity result is “cytotoxic” and the “growth inhibition / cell cycle effect” value is recorded as “growth inhibition linked to extensive G1 arrest”.
On the same counts, the results for `CN(C)C/C=C/C(=O)Nc1cc2c(Nc3ccc(F)c(Cl)c3)ncnc2cc1O[C@H]1CCOC1` [B2, 4-[(3-chloro-4-fluorophenyl)amino]-6-{[4-(N,N-dimethylamino)-1-oxo-2-buten-1-yl]amino}-7-((S)-tetrahydrofuran-3-yloxy)-quinazoline] are “exhibit growth inhibitor activity”, “inhibited angiogenesis; also recorded: antiangiogenic activity”, “cytotoxic” and “growth inhibition linked to extensive G1 arrest”.
